Where two headings read alike, the source gives them in different places. Marks after values point to notes of the source that are not given here.
Columns and labels:
[1] = biological target: T1, human glycine transporter 2 (GlyT2 or SLC6A5) (Homo sapiens, UniProt Q9Y345); test: Inhibition of glycine transport currents, two-electrode voltage clamp in oocytes expressing WT GlyT2; format: cell-based; conditions: for % Maximal inhibition / IC50: GlyT2; for IC50: 30 μM glycine, 95% confidence interval in brackets; for Fold less potent than the corresponding L-isomer: GlyT2 IC50, D-isomer versus L-isomer
T1 construct: expressed in transfected cells; host or cells: Xenopus laevis oocytes injected with cRNA
T1 sequence (Q9Y345 1-797): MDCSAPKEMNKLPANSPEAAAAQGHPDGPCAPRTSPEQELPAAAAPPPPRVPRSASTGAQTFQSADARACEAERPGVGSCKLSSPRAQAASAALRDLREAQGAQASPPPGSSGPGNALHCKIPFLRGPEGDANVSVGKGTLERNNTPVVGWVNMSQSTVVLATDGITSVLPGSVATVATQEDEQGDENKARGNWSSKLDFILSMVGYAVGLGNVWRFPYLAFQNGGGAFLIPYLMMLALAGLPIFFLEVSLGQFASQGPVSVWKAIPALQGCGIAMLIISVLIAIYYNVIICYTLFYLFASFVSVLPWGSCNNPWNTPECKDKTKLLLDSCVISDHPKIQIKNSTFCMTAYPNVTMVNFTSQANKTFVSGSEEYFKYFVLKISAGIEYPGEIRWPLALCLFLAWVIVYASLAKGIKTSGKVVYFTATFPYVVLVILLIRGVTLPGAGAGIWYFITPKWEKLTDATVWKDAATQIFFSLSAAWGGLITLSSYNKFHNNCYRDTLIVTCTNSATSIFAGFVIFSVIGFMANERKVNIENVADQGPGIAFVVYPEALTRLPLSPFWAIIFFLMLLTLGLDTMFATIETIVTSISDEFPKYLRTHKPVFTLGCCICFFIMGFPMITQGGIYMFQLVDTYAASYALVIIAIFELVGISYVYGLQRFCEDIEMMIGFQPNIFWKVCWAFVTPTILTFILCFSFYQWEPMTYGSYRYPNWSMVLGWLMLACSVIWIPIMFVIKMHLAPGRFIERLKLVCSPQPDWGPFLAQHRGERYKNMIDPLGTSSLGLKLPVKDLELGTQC
Experimental: All N-acyl amino acids were synthesized as previously described ([13]). See Supporting Information for full details. Stock solutions of 10 mg ml^−1 of N-acyl amino acids were dissolved in dimethyl sulfoxide and diluted in frog Ringer's solution (96 mM NaCl, 2 mM KCl, 1 mM MgCl2, 1.8 mM CaCl2, 5 mM Hepes, pH 7.5) to desired concentrations. Final solutions contained 0.0025% dimethyl sulfoxide, a concentration that had no effect on transporter or receptor function.
Human GlyT2a WT complementary DNA was subcloned into the plasmid oocyte transcription vector. The amplified GlyT2/plasmid oocyte transcription vector product was then transformed in Escherichia coli cells and subsequently purified using the PureLink Quick Plasmid Miniprep Kit (Invitrogen by Life Technologies) and sequenced by the Australian Genome Research Facility (Sydney, Australia). The purified plasmid DNA was linearized via the restriction enzyme, SpeI (New England Biolabs [Genesearch]) for GlyT2a. Complementary RNAs were synthesized using the mMESAGE mMACHINE T7 kit (Ambion).
All work involving the use of animals was performed in accordance with the Australian Code of Practice for the Care and Use of Animals for Scientific Purposes. […] Stage V oocytes were isolated from the lobe via digestion with 2 mg ml^−1 collagenase A (Boehringer) at 26 °C for 1 h, and 20 ng of cRNA encoding GlyT2 was injected into each oocyte cytoplasm (Drummond Nanoinject; Drummond Scientific Co). The oocytes were then stored in frog Ringer's solution (96 mM NaCl, 2 mM KCl, 1 mM MgCl2, 1.8 mM CaCl2, 5 mM Hepes, pH 7.5), which was supplemented with 2.5 mM sodium pyruvate, 0.5 mM theophylline, 50 μg/ml gentamicin and […] tetracycline. The oocytes were stored at 18 °C for 3 to 5 days, until transporter expression was adequate for measurement using the two-electrode voltage clamp technique. Adequate transporter expression was defined as a ≥30 nA current following application of the glycine EC50.
(§1) GlyT2 is electrogenic, allowing activation to be measured via the two-electrode voltage clamp technique. Oocytes were voltage clamped at −60 mV, and whole-cell currents generated by the substrate were recorded with a Geneclamp 500 amplifier (Axon Instruments), digitized by a Powerlab 2/20 chart recorder (ADInstruments). LabChart version 8 software (ADInstruments, Axon Instruments) was used to visualize and process current traces. Recordings were performed in frog Ringer's solution. Oocytes were placed in an oval-shaped bath with a volume of 0.3 ml, with laminar flow around the oocyte at a rate of 12 ml min^−1 under gravity feed.
(§2) Each of the synthesized acyl-lysine compounds were first tested for their inhibitory activity by coapplying the analogs with 30 μM glycine and assessing their ability to reduce glycine transport currents. Increasing concentrations of each acyl-lysine inhibitor were applied to generate concentration response curves, from which IC50 values and percent maximal inhibition values were calculated.

[2] = biological target: T2, GlyT1 (Homo sapiens, UniProt P48067); test: Selectivity test against GlyT1 transporter, two-electrode voltage clamp electrophysiology; format: cell-based
T2 construct: expressed in transfected cells
T2 sequence (P48067 1-706): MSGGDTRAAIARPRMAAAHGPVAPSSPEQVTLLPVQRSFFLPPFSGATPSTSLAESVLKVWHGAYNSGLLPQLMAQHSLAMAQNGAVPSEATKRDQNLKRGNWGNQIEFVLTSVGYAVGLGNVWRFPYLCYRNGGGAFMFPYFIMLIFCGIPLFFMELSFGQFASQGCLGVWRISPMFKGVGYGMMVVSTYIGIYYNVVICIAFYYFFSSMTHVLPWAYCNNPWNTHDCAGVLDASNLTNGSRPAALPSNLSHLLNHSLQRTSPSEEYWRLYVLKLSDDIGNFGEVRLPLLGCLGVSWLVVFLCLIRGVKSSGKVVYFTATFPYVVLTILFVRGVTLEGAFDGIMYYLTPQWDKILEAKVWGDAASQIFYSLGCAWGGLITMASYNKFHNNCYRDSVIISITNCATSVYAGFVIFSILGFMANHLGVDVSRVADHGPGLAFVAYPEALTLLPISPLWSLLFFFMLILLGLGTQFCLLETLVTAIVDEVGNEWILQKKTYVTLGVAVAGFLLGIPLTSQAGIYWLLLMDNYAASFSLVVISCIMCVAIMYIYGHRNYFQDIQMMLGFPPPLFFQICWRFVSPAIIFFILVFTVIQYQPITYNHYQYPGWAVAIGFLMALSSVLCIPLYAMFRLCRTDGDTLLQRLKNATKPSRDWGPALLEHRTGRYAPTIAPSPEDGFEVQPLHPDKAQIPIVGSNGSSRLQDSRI
Description: The lipid inhibitors described previously contain 18 carbon acyl tails with a cis-double bond in the Δ9 position (i.e., nine bonds from the amide linkage to the amino acid head group), and penetration of the lipid tails into the allosteric site appears to be a critical determinant of inhibitory activity. To investigate the effect of tail length on GlyT2 inhibitory activity, we synthesized D- and L-lysine–based inhibitors with truncated tails. Double bonds were maintained in the Δ9 position, and overall chain lengths were reduced to C16 or C14 (C16ω7-Lys and C14ω5-Lys, respectively). The chemical structures of these new lipids are shown in Figure 1, and their synthesis and characterization are described in the Supporting information section. Newly synthesized acyl lysine analogs were then tested against GlyT2 and also tested for selectivity by testing against the closely related GlyT1 transporter using two-electrode voltage clamp electrophysiology (see Table 1 for inhibitory data).
as §1, §2

[3] = biological target: T1, human glycine transporter 2 (GlyT2 or SLC6A5); conditions: cited from earlier work; for % Maximal inhibition / IC50: previously published data, ref Mostyn et al., 2019 ([6]); for GlyT2 inhibitory activity in words: D-configuration head group
[4] = biological target: T2, GlyT1; set-up: method as in Mostyn et al., 2019 ([6]); conditions: previously published data, ref Mostyn et al., 2019 ([6]), cited from earlier work
[5] = test system: GlyT2; conditions: most potent small molecule GlyT2 inhibitor to date, reference not given; cited from earlier work
[6] = test system: GlyT2 Y550L; set-up: method as in PMID 31621581; conditions: mutagenesis data; cited from earlier work
[7] = test system: GlyT2 W563L; set-up: method as in PMID 31621581; conditions: mutagenesis data; cited from earlier work
[8] = test system: rat model of neuropathic pain; conditions: cited from earlier work
[9] = cited from earlier work
[10] = cited from earlier work; remark: listed apart in the source

**Q.** For `CCCCCC/C=C\CCCCCCCC(=O)N[C@H](CCCCN)C(=O)O` [C16ω7-D-Lys], which “% Maximal inhibition” value ([1]; D-Head group stereochemistry) is on record?
**A.** 96.2 ± 2.1%

**Q.** And the IC50 ([1]; D-Head group stereochemistry)?
**A.** 602 nM

**Q.** And the “Fold reduced potency relative to C18ω9-D-Lys” value ([1]; GlyT2 IC50)?
**A.** 12 fold

**Q.** What about the “Fold less potent than the corresponding L-isomer” value [1] of the same compound?
**A.** ninefold

**Q.** And the IC50 ([2]; D-Head group stereochemistry)?
**A.** > 3000 nM

**Q.** Which “% Maximal inhibition” value ([1]; L-Head group stereochemistry) does the source give for `CCCCC=CCCCCCCCCCCCC(=O)NC(CCCCN)C(=O)O` [C18ω5-L-Lys] here?
**A.** 81.3 ± 5.1%

**Q.** And the IC50 ([1]; L-Head group stereochemistry)?
**A.** 67.5 nM

**Q.** What about the IC50 ([2]; L-Head group stereochemistry) of the same compound?
**A.** > 3000 nM

**Q.** What does the source list for `CCCCCCCCC=CCCCCCCCC(=O)NC(Cc1c[nH]c2ccccc12)C(=O)O` [C18ω9-L-Trp]?
**A.** % Maximal inhibition ([3]; L-Head group stereochemistry): 86.2 ^a %; IC50 ([3]; L-Head group stereochemistry): 0.0546 µM; IC50 ([4]; L-Head group stereochemistry): > 10000 nM

**Q.** With `CCC=CCCCCCCCCCCCC(=O)NC(CCCCN)C(=O)O` [C16ω3-D-Lys] as the compound, how does the “% Maximal inhibition” value ([1]; D-Head group stereochemistry) read?
**A.** 91.8 ± 8.6%

**Q.** And the IC50 ([1]; D-Head group stereochemistry)?
**A.** 699 nM

**Q.** What about the “Fold less potent than the corresponding L-isomer” value [1] of the same compound?
**A.** 65 fold

**Q.** And the IC50 ([2]; D-Head group stereochemistry)?
**A.** > 3000 nM

**Q.** With `COc1cc(C(=O)NCC2(N(C)C)CCCC2)cc(OC)c1OCc1ccccc1` [ORG25543] as the compound, how does the IC50 [5] read?
**A.** 16 nM

**Q.** For `CCCCCCCC/C=C\CCCCCCCC(=O)N[C@@H](CCCCN)C(=O)O` [C18ω9-L-Lys, oleoyl-L-lysine], which “% Maximal inhibition” value ([3]; L-Head group stereochemistry) is on record?
**A.** 86.8 ^a %

**Q.** And the IC50 ([3]; L-Head group stereochemistry)?
**A.** 0.0255 µM

**Q.** And the IC50 ([4]; L-Head group stereochemistry)?
**A.** > 3000 nM

**Q.** What about the “Inhibition of GlyT2 Y550L mutant” value [6] of the same compound?
**A.** not inhibited

**Q.** And the “Inhibition of GlyT2 W563L mutant” value [7]?
**A.** not inhibited

**Q.** What does the source list for `CCCCC=CCCCCCCCCCCCC(=O)NC(CCCCN)C(=O)O` [C18ω5-D-Lys]?
**A.** % Maximal inhibition ([1]; D-Head group stereochemistry): 87.6 ± 3.7%; IC50 ([1]; D-Head group stereochemistry): 64.9 nM; IC50 ([2]; D-Head group stereochemistry): > 3000 nM

**Q.** Which results are given for `CCCCCCC=CCCCCCCCC(=O)NC(CCCCN)C(=O)O` [C16ω7-L-Lys]?
**A.** % Maximal inhibition ([1]; L-Head group stereochemistry): 90.2 ± 2.1%; IC50 ([1]; L-Head group stereochemistry): 66.6 nM; IC50 ([2]; L-Head group stereochemistry): > 3000 nM

**Q.** For `CCCCCCCCC=CCCCCCCCC(=O)NC(Cc1c[nH]c2ccccc12)C(=O)O` [C18ω9-D-Trp], which “% Maximal inhibition” value ([3]; D-Head group stereochemistry) is on record?
**A.** 14.2 ^a %

**Q.** What about the IC50 ([3]; D-Head group stereochemistry, μM) of the same compound?
**A.** > 10 µM

**Q.** What about the “GlyT2 inhibitory activity in words” value [3] of the same compound?
**A.** inactive

**Q.** What about the IC50 ([4]; D-Head group stereochemistry) of the same compound?
**A.** > 10000 nM

**Q.** What does the source list for `CCCCCCCC/C=C\CCCCCCCC(=O)N[C@H](CCCCN)C(=O)O` [C18ω9-D-Lys, oleoyl D-lysine]?
**A.** % Maximal inhibition ([3]; D-Head group stereochemistry): 91.0 ^a %; IC50 ([3]; D-Head group stereochemistry): 0.0483 µM; GlyT2 inhibitory activity in words [3]: retains potency; Analgesia [8]: produces analgesia; Side effects [8]: minimal side effects; IC50 ([4]; D-Head group stereochemistry): > 3000 nM; Metabolic stability [9]: metabolically stable; Blood-brain barrier permeability [10]: blood–brain barrier permeable; Inhibition of GlyT2 Y550L mutant [6]: not inhibited; Inhibition of GlyT2 W563L mutant [7]: not inhibited

**Q.** For `CCCC/C=C\CCCCCCCC(=O)N[C@H](CCCCN)C(=O)O` [C14ω5-D-Lys], which “% Maximal inhibition” value ([1]; D-Head group stereochemistry) is on record?
**A.** 79.7 ± 3.6%

**Q.** And the IC50 ([1]; D-Head group stereochemistry)?
**A.** 1380 nM

**Q.** What about the IC50 ([2]; D-Head group stereochemistry) of the same compound?
**A.** > 3000 nM

**Q.** For `CCC=CCCCCCCCCCCCC(=O)NC(CCCCN)C(=O)O` [C16ω3-L-Lys], which “% Maximal inhibition” value ([1]; L-Head group stereochemistry) is on record?
**A.** 94.9 ± 1.6%

**Q.** And the IC50 ([1]; L-Head group stereochemistry)?
**A.** 10.8 nM

**Q.** And the IC50 ([2]; L-Head group stereochemistry)?
**A.** > 3000 nM

**Q.** For `CCCCC=CCCCCCCCC(=O)NC(CCCCN)C(=O)O` [C14ω5-L-Lys], which “% Maximal inhibition” value ([1]; L-Head group stereochemistry) is on record?
**A.** 96.2 ± 7.3%

**Q.** What about the IC50 ([1]; L-Head group stereochemistry) of the same compound?
**A.** 703 nM

**Q.** And the IC50 ([2]; L-Head group stereochemistry)?
**A.** > 3000 nM

Reference: paper PMC7949037, “The allosteric inhibition of glycine transporter 2 by bioactive lipid analgesics is controlled by penetration into a deep lipid cavity” (The Journal of Biological Chemistry, 2021)
